Experimental data: patent publication US20080085886A1, “Aza-benzofuranyl compounds and methods of use” (GENENTECH, INC., priority 2006, published 2008)
Where a name gives a salt, the structure may show the parent alone.

How the values were obtained:
[1] = tested on: HCT 116 human colorectal carcinoma / A375 human malignant melanoma cell lines; experiment: Cell proliferation assay (CellTiter-Glo), Example 3; type: cell-based; settings: in either one of the cell lines (HCT 116, A375), 72 h
Description: Example 3 Cell Proliferation Assay
Compounds are tested in a cell proliferation assay using the following cell lines:
HCT 116 human colorectal carcinoma (ATCC)
(§1) A375 human malignant melanoma (ATCC)
(§2) Both cell lines are maintained in DMEM/F12 (1:1) media (Gibco) supplemented with 10% FCS at 37° C. in a 5% CO2 humidified incubator.
Cells are seeded in 96-well plates at 2,000 cells/well and after 24 hours they are exposed to different concentrations of compounds in 0.83% DMSO. Cells are grown for a further 72 h, and an equal volume of CellTiter-Glo reagent (Promega) is added to each well. This lyses the cells and generates a luminescent signal proportional to the amount of ATP released (and therefore proportional to the number of cells in the well) that can be detected using a multiwell luminometer.
EC50 values are calculated using the XLfit software package (version 2.0.5).

[2] = tested on: cellular p-ERK in HCT116 human colorectal carcinoma / A375 human malignant melanoma cell lines; experiment: Phospho-ERK cell-based assay (ELISA), Example 4; settings: in either one of the cell lines (HCT116, A375), 2 h or 24 h exposure
Description: Example 4 Phospho-ERK Cell-Based Assay
Compounds are tested in a cell-based phospho-ERK ELISA using the following cell lines:
HCT116 human colorectal carcinoma (ATCC)
as §1, §2
Cells are seeded in 96-well plates at 2,000 cells/well and after 24 h they are exposed to different concentrations of compounds in 0.83% DMSO. Cells are grown for a further 2 h or 24 h, fixed with formaldehyde (2% final) and permeabilised with methanol. Following blocking with TBST-3% BSA, fixed cells are incubated with primary antibody (anti-phospho ERK from rabbit) over-night at 4° C. Cells are incubated with Propidium Iodide (DNA fluorescent dye) and detection of cellular p-ERK is performed using an anti-rabbit secondary antibody conjugated to the fluorescent Alexa Fluor 488 dye (Molecular probes). The fluorescence is analysed using the Acumen Explorer (TTP Labtech), a laser-scanning microplate cytometer, and the Alexa Fluor 488 signal is normalised to the PI signal (proportional to cell number).
The EC50 is defined as the concentration at which a given compound achieves a signal half way between the baseline and the maximum response. EC50 values are calculated using the XLfit software package (version 2.0.5).

## O=C(NOC[C@H](O)CO)c1oc2ccncc2c1Nc1ccc(I)cc1F [Example 5, 3-(2-Fluoro-4-iodo-phenylamino)-furo[3,2-c]pyridine-2-carboxylic acid ((R)-2,3-dihydroxy-propoxy)-amide]
[1]
  EC50: < 10 µM
[2]
  EC50: < 10 µM

## O=C(NOC[C@H](O)CO)c1oc2ccncc2c1Nc1ccc(Br)cc1F [Example 6, 3-(2-Fluoro-4-bromo-phenylamino)-furo[3,2-c]pyridine-2-carboxylic acid ((R)-2,3-dihydroxy-propoxy)-amide]
[1]
  EC50: < 10 µM
[2]
  EC50: < 10 µM

## C#Cc1ccc(Nc2c(C(=O)NOC[C@H](O)CO)oc3ccncc23)c(F)c1 [Example 7, 3-(4-Ethynyl-2-fluoro-phenylamino)-furo[3,2-c]pyridine-2-carboxylic acid ((R)-2,3-dihydroxy-propoxy)-amide]
[1]
  EC50: < 10 µM
[2]
  EC50: < 10 µM

## O=C(NOCC1CC1)c1oc2ccncc2c1Nc1ccc(I)cc1F [Example 8, 3-(2-Fluoro-4-iodo-phenylamino)-furo[3,2-c]pyridine-2-carboxylic acid cyclopropylmethoxy-amide]
[1]
  EC50: < 10 µM
[2]
  EC50: < 10 µM

## O=C(NOC[C@H](O)CO)c1oc2cnccc2c1Nc1ccc(I)cc1F [Example 9, 3-(2-Fluoro-4-iodo-phenylamino)-furo[2,3-c]pyridine-2-carboxylic acid ((R)-2,3-dihydroxy-propoxy)-amide]
[1]
  EC50: < 10 µM
[2]
  EC50: < 10 µM

## O=C(NOCCO)c1oc2ccncc2c1Nc1ccc(I)cc1F [Example 10, 3-(2-Fluoro-4-iodo-phenylamino)-furo[3,2-c]pyridine-2-carboxylic acid (2-hydroxy-ethoxy)-amide]
[1]
  EC50: < 10 µM
[2]
  EC50: < 10 µM

## C=COCCONC(=O)c1oc2ccncc2c1Nc1ccc(I)cc1F [Example 11, 3-(2-Fluoro-4-iodo-phenylamino)-furo[3,2-c]pyridine-2-carboxylic acid (2-vinyloxy-ethoxy)-amide]
[1]
  EC50: < 10 µM
[2]
  EC50: < 10 µM

## O=C(NOC[C@H](O)CO)c1oc2ccncc2c1Nc1ccc(I)cc1 [Example 12, 3-(4-Iodo-phenylamino)-furo[3,2-c]pyridine-2-carboxylic acid ((R)-2,3-dihydroxy-propoxy)-amide]
[1]
  EC50: < 10 µM
[2]
  EC50: < 10 µM

## O=C(NOC[C@H](O)CO)c1oc2ccncc2c1Nc1ccc(I)cc1Cl [Example 13, 3-(2-Chloro-4-iodo-phenylamino)-furo[3,2-c]pyridine-2-carboxylic acid ((R)-2,3-dihydroxy-propoxy)-amide]
[1]
  EC50: < 10 µM
[2]
  EC50: < 10 µM

## O=C(NOC[C@H](O)CO)c1oc2ccncc2c1Nc1cc(F)c(I)cc1F [Example 15, 3-(2,5-Difluoro-4-iodo-phenylamino)-furo[3,2-c]pyridine-2-carboxylic acid ((R)-2,3-dihydroxy-propoxy)-amide]
[1]
  EC50: < 10 µM
[2]
  EC50: < 10 µM

## CC(C)(C)OC(=O)N1CCC(ONC(=O)c2oc3ccncc3c2Nc2ccc(I)cc2F)CC1 [Example 16, 4-{[3-(2-Fluoro-4-iodo-phenylamino)-furo[3,2-c]pyridine-2-carbonyl]aminooxy}-piperidine-1-carboxylic acid tert-butyl ester]
[1]
  EC50: < 10 µM
[2]
  EC50: < 10 µM

## O=C(NOC[C@H](O)CO)c1oc2c(Br)cncc2c1Nc1ccc(I)cc1F [Example 18, 7-Bromo-3-(2-fluoro-4-iodo-phenylamino)-furo[3,2-c]pyridine-2-carboxylic acid ((R)-2,3-dihydroxy-propoxy)amide]
[1]
  EC50: < 10 µM
[2]
  EC50: < 10 µM

## O=C(NOC1CCNCC1)c1oc2ccncc2c1Nc1ccc(I)cc1F [Example 20, 3-(2-Fluoro-4-iodo-phenylamino)-furo[3,2-c]pyridine-2-carboxylic acid (piperidin-4-yloxy)-amide mono formate salt]
[1]
  EC50: < 10 µM
[2]
  EC50: < 10 µM

## NC(=O)c1oc2ccncc2c1Nc1ccc(I)cc1F [Example 21, 3-(2-Fluoro-4-iodo-phenylamino)-furo[3,2-c]pyridine-2-carboxylic acid amide]
[1]
  EC50: < 10 µM
[2]
  EC50: < 10 µM

## CN(c1ccc(I)cc1F)c1c(C(=O)NOCCO)oc2ccncc12 [Example 22, 3-[(2-Fluoro-4-iodo-phenyl)-methyl-amino]-furo[3,2-c]pyridine-2-carboxylic acid (2-hydroxy-ethoxy)-amide]
[1]
  EC50: < 10 µM
[2]
  EC50: < 10 µM

## O=C(NO)c1oc2ccncc2c1Nc1ccc(I)cc1F [Example 24, 3-(2-Fluoro-4-iodo-phenylamino)-furo[3,2-c]pyridine-2-carboxylic acid hydroxyamide]
[1]
  EC50: < 10 µM
[2]
  EC50: < 10 µM

## O=C(NOC1CCOCC1)c1oc2ccncc2c1Nc1ccc(I)cc1F [Example 25, 3-(2-Fluoro-4-iodo-phenylamino)-furo[3,2-c]pyridine-2-carboxylic acid (tetrahydro-pyran-4-yloxy)-amide]
[1]
  EC50: < 10 µM
[2]
  EC50: < 10 µM

## O=C(c1oc2ccncc2c1Nc1ccc(I)cc1F)N1CC(O)CO1 (centres unmarked) [Example 28, [3-(2-Fluoro-4-iodo-phenylamino)-furo[3,2-c]pyridin-2-yl]-(4-hydroxy-isoxazolidin-2-yl)-methanone]
[1]
  EC50: < 10 µM
[2]
  EC50: < 10 µM

## NCCONC(=O)c1oc2ccncc2c1Nc1ccc(I)cc1F [Example 31, 3-(2-Fluoro-4-iodo-phenylamino)-furo[3,2-c]pyridine-2-carboxlic acid (2-amino-ethoxy)-amide]
[1]
  EC50: < 10 µM
[2]
  EC50: < 10 µM

## CSc1ccc(Nc2c(C(=O)NOCCO)oc3ccncc23)c(F)c1 [Example 35, 3-(2-Fluoro-4-methylsulfanyl-phenylamino)-furo[3,2-c]pyridine-2-carboxylic acid (2-hydroxy-ethoxy)-amide]
[1]
  EC50: < 10 µM
[2]
  EC50: < 10 µM

## O=C(c1oc2ccncc2c1Nc1ccc(I)cc1F)N1CC[C@H](O)[C@H]1CO [Example 131, (3-(2-fluoro-4-iodophenylamino)furo[3,2-c]pyridin-2-yl)((2R,3S)-3-hydroxy-2-(hydroxymethyl)pyrrolidin-1-yl)methanone]
[2]
  EC50: < 10 µM

## O=C(NOCCO)c1oc2c(F)cncc2c1Nc1ccc(I)cc1F [Example 139, 7-Fluoro-3-(2-fluoro-4-iodo-phenylamino)-furo[3,2-c]pyridine-2-carboxylic acid (2-hydroxy-ethoxy)-amide]
[2]
  EC50: < 10 µM

## Cc1nccc2oc(C(=O)NOCCO)c(Nc3ccc(I)cc3F)c12 [Example 144, 3-(2-Fluoro-4-iodo-phenylamino)-methyl-furo[3,2-c]pyridine-2-carboxylic acid (2-hydroxy-ethoxy)-amide]
[2]
  EC50: < 10 µM

## O=C(NOCCO)c1oc2ccnc(Cl)c2c1Nc1ccc(I)cc1F [Example 147, 4-Chloro-3-(2-fluoro-4-iodo-phenylamino)-furo[3,2-c]pyridine-2-carboxylic acid (2-hydroxy-ethoxy)-amide]
[2]
  EC50: < 10 µM

## CSc1ccc(Nc2c(C(=O)NOCCO)oc3c(Cl)cncc23)c(F)c1 [Example 152, 7-Chloro-3-(2-fluoro-4-methylsulfanyl-phenylamino)-furo[3,2-c]pyridine-2-carboxylic acid (2-hydroxy-ethoxy)-amide]
[2]
  EC50: < 10 µM

## C[C@H](O)CONC(=O)c1oc2c(F)cncc2c1Nc1ccc(I)cc1F [Example 155, 7-Fluoro-3-(2-fluoro-4-iodo-phenylamino)-furo[3,2-c]pyridine-2-carboxylic acid ((S)-2-hydroxy-propoxy)-amide]
[2]
  EC50: < 10 µM

## CC(C)(CO)ONC(=O)c1oc2c(F)cncc2c1Nc1ccc(I)cc1F [Example 156, 7-Fluoro-3-(2-fluoro-4-iodo-phenylamino)-furo[3,2-c]pyridine-2-carboxylic acid (2-hydroxy-1,1-dimethyl-ethoxy)-amide]
[2]
  EC50: < 10 µM

## O=C(c1oc2c(F)cncc2c1Nc1ccc(I)cc1F)N1CC[C@@H](O)C1 [Example 157, [7-Fluoro-3-(2-fluoro-4-iodo-phenylamino)-furo[3,2-c]pyridin-2-yl]-((R)-3-hydroxy-pyrrolidin-1-yl)-methanone]
[2]
  EC50: < 10 µM

## O=C(c1oc2c(F)cncc2c1Nc1ccc(I)cc1F)N1C[C@H](O)[C@@H](O)C1 [Example 158, ((3S,4S)-3,4-Dihydroxy-pyrrolidin-1-yl)-[7-fluoro-3-(2-fluoro-4-iodo-phenylamino)-furo[3,2-c]pyridin-2-yl]-methanone]
[2]
  EC50: < 10 µM

## O=C(NOC[C@H](O)CO)c1oc2c(F)cncc2c1Nc1ccc(I)cc1F [Example 159, 7-Fluoro-3-(2-fluoro-4-iodo-phenylamino)-furo[3,2-c]pyridine-2-carboxylic acid ((R)-2,3-dihydroxy-propoxy)-amide]
[2]
  EC50: < 10 µM
